Data reported in PubChem BioAssay AID1919005 (Molecular Pharmacology Branch, DTP, NCI, 2023).
Values joined by “and” are separate entries in the source; they are usually repeats but may differ in a detail not shown here. Identical values can stand only once.

Tested on: 855422-203-R-J1-PDC complex spheroid growth
Assay: Anticancer human tumor 855422-203-R-J1-PDC patient-derived bladder carcinoma cell line growth inhibition [AhR]
Details: for viability, T/C: stronger effect = lower value; active = viability on the fitted dose curve at most 10% of control; inactive = the rest
Excerpt: Multicellular complex tumor spheroid response to aryl hydrocarbon receptor antagonists in combination with a variety of drugs and investigational agents in selected tumor cell lines
The current study was undertaken to assess response to aryl hydrocarbon receptor antagonists in combination with standard-of-care drugs and investigational agents in solid tumor complex spheroid models. Complex spheroids include a stromal component modeled by human endothelial cells (HUVEC) and fibroblasts modeled by human mesenchymal stem cells (MSCs). The concentration ranges selected for each drug and investigational agent were based upon clinically achievable concentrations if the clinical Cmax of the agent was known.
Compounds. The drugs and investigational agents: BAY 2416964 (NSC825713), GNF351 (NSC835774), CH-223191 (NSC835775), CPI-455 (NSC825282), aza-TdCyd (NSC777586), decitabine (NSC127716), belinostat (NSC758774), entinostat (NSC756642), pevonedistat (NSC761192), tazemetostat (NSC777109), talazoparib (NSC765396), olaparib (NSC753686), selinexor (NSC780203), nedisertib (M3814, NSC802822), bortezomib (NSC756655), venetoclax (NSC766270), doxorubicin (NSC123127), elimusertib (BAY189344, NSC800525), ceralasertib (AZD6738, NSC777638), TAK-243 (NSC785004), alisertib (NSC759677), etoposide (NSC141540), topotecan (NSC609699), eribulin (NSC707389), gemcitabine (NSC613327), carboplatin (NSC241240), cisplatin (NSC119875), and SN-38 (NSC673596) were obtained from the National Cancer Institute (NCI) Developmental Therapeutics Program Chemical Repository (32). The FDA-approved anticancer drug set is available from the Developmental Therapeutics Program at https://dtp.cancer.gov/organization/dscb/obtaining/available plates.htm. […] The stock solutions were prepared in dimethyl sulfoxide (DMSO, Sigma-Aldrich, St. Louis, MO, cat. D2650), except for the platinum compounds which were prepared in saline (Quality Biological, Gaithersburg, MD, cat. 114-055-101), at 800-fold the tested concentration and stored at -70 degrees C prior to their use. All drugs and investigational agents were tested over a range starting from a high concentration at or near the clinical Cmax and decreasing in half-log increments. If the clinical Cmax for an agent had not been determined, the highest concentration tested was 10 microM (Table 1).
Cell Culture. All cells were maintained in an incubator at 37 degrees C and 5% CO2 with 95% humidity. The PDC lines were cultured according to standard operating procedures established by the NCI PDMR (https://pdmr.cancer.gov). Briefly, all PDCs were thawed and cultured in Matrigel-coated flasks prepared with a working solution of 1X Ham's F-12 nutrient mix, without supplementation (Invitrogen, Waltham, MA, cat. 11765054), 100 U/mL penicillin-streptomycin (Invitrogen, cat. 15140122), and 2.5% Matrigel (Corning Inc., Corning, NY, cat. 354248) for the first three passages. All PDCs were cultured in complete DMEM/F-12 media containing advanced DMEM/F-12 (Invitrogen, cat. 12634028), 4.9% defined fetal bovine serum, heat inactivated (HyClone Laboratories Inc., Logan, UT, cat. SH30070.03HI), 389 ng/mL hydrocortisone (Sigma-Aldrich, cat. H4001), 9.7 ng/mL human EGF recombinant protein (Invitrogen, cat. PHG0313), 23.4 microg/mL adenine (Sigma-Aldrich, cat. A2786), 97.3 U/mL penicillin-streptomycin (Invitrogen, cat. 15140122), 1.9 mM L-glutamine (Invitrogen, cat. 25030081), and 9.7 microM Y-27632 dihydrochloride (Tocris Bioscience, Bristol, United Kingdom, cat. 1254). The PDCs were cultured in complete DMEM/F12 media without 10 microM Y-27632 dihydrochloride for at least two passages prior to the screen. The established cell lines NCI-H1341 and […] were cultured in DMEM/F-12, HEPES (Invitrogen, cat. 11330032), 5% defined fetal bovine serum (HyClone Laboratories Inc., cat. SH30070.03), ITS premix universal culture supplement [insulin (5 microg/mL), transferrin (5 microg/mL), and selenious acid (5 ng/mL)] […]

[1] = curve of first compound, second compound 0.1 µM
[2] = curve of first compound, second compound 0.316 µM
[3] = curve of first compound, second compound 1 µM
[4] = curve of first compound, second compound 3.16 µM
[5] = curve of first compound, second compound 10 µM
[6] = second compound 0.1 µM, first compound 0.0316 µM
[7] = second compound 0.1 µM, first compound 0.1 µM
[8] = second compound 0.1 µM, first compound 0.316 µM
[9] = second compound 0.1 µM, first compound 1 µM
[10] = second compound 0.1 µM, first compound 3.16 µM
[11] = second compound 0.1 µM, first compound 10 µM
[12] = second compound 0.316 µM, first compound 0.0316 µM
[13] = second compound 0.316 µM, first compound 0.1 µM
[14] = second compound 0.316 µM, first compound 0.316 µM
[15] = second compound 0.316 µM, first compound 1 µM
[16] = second compound 0.316 µM, first compound 3.16 µM
[17] = second compound 0.316 µM, first compound 10 µM
[18] = second compound 1 µM, first compound 0.0316 µM
[19] = second compound 1 µM, first compound 0.1 µM
[20] = second compound 1 µM, first compound 0.316 µM
[21] = second compound 1 µM, first compound 1 µM
[22] = second compound 1 µM, first compound 3.16 µM
[23] = second compound 1 µM, first compound 10 µM
[24] = second compound 3.16 µM, first compound 0.0316 µM
[25] = second compound 3.16 µM, first compound 0.1 µM
[26] = second compound 3.16 µM, first compound 0.316 µM
[27] = second compound 3.16 µM, first compound 1 µM
[28] = second compound 3.16 µM, first compound 3.16 µM
[29] = second compound 3.16 µM, first compound 10 µM
[30] = second compound 10 µM, first compound 0.0316 µM
[31] = second compound 10 µM, first compound 0.1 µM
[32] = second compound 10 µM, first compound 0.316 µM
[33] = second compound 10 µM, first compound 1 µM
[34] = second compound 10 µM, first compound 3.16 µM
[35] = second compound 10 µM, first compound 10 µM
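Note: spheroids exposed to agents for seven days before readout.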
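Throughout, for viability, T/C: percent of DMSO vehicle control luminescence viability.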

COc1cc(Nc2ncc3c(n2)-c2ccc(Cl)cc2C(c2c(F)cccc2OC)=NC3)ccc1C(=O)O + CC(CO)NC(=O)c1cc(-c2ccc(Cl)cc2)nn(-c2cnn(C)c2)c1=O
inactive: viability, T/C [6] 97% | viability, T/C [7] 93.6% | viability, T/C [8] 66% | viability, T/C [9] 57.6% | viability, T/C [10] 52.2% | viability, T/C [11] 46.1% | viability, T/C [12] 87.1% | viability, T/C [13] 107% | viability, T/C [14] 66.2% | viability, T/C [15] 55.2% | viability, T/C [16] 48% | viability, T/C [17] 48.1% | viability, T/C [18] 93.5% | viability, T/C [19] 104% | viability, T/C [20] 66.2% | viability, T/C [21] 61% | viability, T/C [22] 48.1% | viability, T/C [23] 45.9% | viability, T/C [24] 88.9% | viability, T/C [25] 90.6% | viability, T/C [26] 60.2% | viability, T/C [27] 58.5% | viability, T/C [28] 46.4% | viability, T/C [29] 47.2% | viability, T/C [30] 94.7% | viability, T/C [31] 79.9% | viability, T/C [32] 60.8% | viability, T/C [33] 50.6% | viability, T/C [34] 55.5% | viability, T/C [35] 46.3%
10000 nM: IC50 [2]
> 10000 nM: IC50 [1] | IC50 [3] | IC50 [4] | IC50 [5]

CC1COCCN1c1cc(-c2ccnn2C)c2ccnc(-c3ccn[nH]3)c2n1 (configuration not stated) + CC(CO)NC(=O)c1cc(-c2ccc(Cl)cc2)nn(-c2cnn(C)c2)c1=O
178 nM: IC50 [5]
inactive: viability, T/C (second compound 0.1 µM, first compound 0.00316 µM) 94.2% | viability, T/C (second compound 0.1 µM, first compound 0.01 µM) 85% | viability, T/C [6] 93.2% | viability, T/C [7] 94.2% | viability, T/C [8] 61.4% | viability, T/C [9] 22.8% | viability, T/C (second compound 0.316 µM, first compound 0.00316 µM) 94.5% | viability, T/C (second compound 0.316 µM, first compound 0.01 µM) 87.4% | viability, T/C [12] 78.5% | viability, T/C [13] 95.3% | viability, T/C [14] 52.5% | viability, T/C [15] 21.1% | viability, T/C (second compound 1 µM, first compound 0.00316 µM) 97.3% | viability, T/C (second compound 1 µM, first compound 0.01 µM) 89.4% | viability, T/C [18] 88% | viability, T/C [19] 84.9% | viability, T/C [20] 47.9% | viability, T/C [21] 17.6% | viability, T/C (second compound 3.16 µM, first compound 0.00316 µM) 85.7% | viability, T/C (second compound 3.16 µM, first compound 0.01 µM) 91.8% | viability, T/C [24] 90% | viability, T/C [25] 76.5% | viability, T/C [26] 41.2% | viability, T/C [27] 17.7% | viability, T/C (second compound 10 µM, first compound 0.00316 µM) 85.5% | viability, T/C (second compound 10 µM, first compound 0.01 µM) 94.7% | viability, T/C [30] 78.5% | viability, T/C [31] 68.9% | viability, T/C [32] 32.2% | viability, T/C [33] 19.8%
237 nM: IC50 [4]
444 nM: IC50 [1]
347 nM: IC50 [2]
298 nM: IC50 [3]

Nc1ncn(C2CC(O)C(CO)O2)c(=O)n1 (configuration not stated)
inactive: viability, T/C (compound 0.00316 µM) 94.3% and 107% and 95.8% | viability, T/C (compound 0.01 µM) 96.5% and 98.7% and 94.9% | viability, T/C (compound 0.0316 µM) 91.6% and 97.8% and 87.2% | viability, T/C (compound 0.1 µM) 87.2% and 88.3% and 87.7% | viability, T/C (compound 0.316 µM) 86.9% and 90.8% and 79.8% | viability, T/C (compound 1 µM) 83.3% and 83.5% and 78.8%
> 1000 nM: IC50 (curve of compound)

Nc1ccn(C2OC(CO)C(O)C2(F)F)c(=O)n1 (configuration not stated) + CC(CO)NC(=O)c1cc(-c2ccc(Cl)cc2)nn(-c2cnn(C)c2)c1=O
166 nM: IC50 [2]
132 nM: IC50 [5]
232 nM: IC50 [1]
175 nM: IC50 [3]
inactive: viability, T/C [6] 99.4% | viability, T/C [7] 79.7% | viability, T/C [8] 38.5% | viability, T/C [9] 18.7% | viability, T/C [10] 14.4% | viability, T/C [11] 10.5% | viability, T/C [12] 88.4% | viability, T/C [13] 71.2% | viability, T/C [14] 22.9% | viability, T/C [15] 15.9% | viability, T/C [16] 13.2% | viability, T/C [17] 8.62% | viability, T/C [18] 97.8% | viability, T/C [19] 74.3% | viability, T/C [20] 23.9% | viability, T/C [21] 17.8% | viability, T/C [22] 14.4% | viability, T/C [23] 8.17% | viability, T/C [24] 89.9% | viability, T/C [25] 50.2% | viability, T/C [26] 22.2% | viability, T/C [27] 16.1% | viability, T/C [28] 11.3% | viability, T/C [29] 9.74% | viability, T/C [30] 81.3% | viability, T/C [31] 59.6% | viability, T/C [32] 19.9% | viability, T/C [33] 14.6% | viability, T/C [34] 14.5% | viability, T/C [35] 8.36%
99.5 nM: IC50 [4]
